Source: patent US8173638B2 (Boehringer Ingelheim International GmbH, priority 2006, dated 2012)

Biological target: T1, human CB2R (Homo sapiens, UniProt P34972)
T1 construct: host or cells: CHO cells
Experiment: CB2R mediated modulation of cAMP synthesis
Format: cell-based
Conditions: found through the use of the described assays (CB2 agonists); qualitative statement
Outline: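 CHO cells expressing human CB2R treated with compound 30 min at 37 °C in buffer with 1 mM IBMX, 0.25% BSA and 10 uM forskolin. cAMP measured after lysis by DiscoverX-XS kit.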

T1 sequence (P34972 whole entry): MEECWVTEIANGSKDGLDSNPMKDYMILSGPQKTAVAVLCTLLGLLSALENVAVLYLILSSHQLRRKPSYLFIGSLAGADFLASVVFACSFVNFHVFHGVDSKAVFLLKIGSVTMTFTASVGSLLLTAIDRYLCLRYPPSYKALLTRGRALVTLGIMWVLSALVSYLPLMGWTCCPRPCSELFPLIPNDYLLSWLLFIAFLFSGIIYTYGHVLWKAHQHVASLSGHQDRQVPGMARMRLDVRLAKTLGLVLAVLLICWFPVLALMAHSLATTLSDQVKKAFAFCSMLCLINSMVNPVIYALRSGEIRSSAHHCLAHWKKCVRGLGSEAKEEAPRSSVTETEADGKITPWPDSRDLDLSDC

CC(C)(C)c1ccc(NC(=O)N2CCCN(C(=O)CCC3CCCCC3)CC2)cc1 [4-(3-Cyclohexyl-propionyl)-[1,4]diazepane-1-carboxylic acid (4-tert-butyl-phenyl)-amide]
agonistic activity: agonistic activity

O=C(CCC1CCCCC1)N1CCCN(C(=O)Nc2ccc3ccccc3c2)CC1 [4-(3-Cyclohexyl-propionyl)-[1,4]diazepane-1-carboxylic acid naphthalen-2-ylamide]
agonistic activity: agonistic activity

N#Cc1ccc(NC(=O)N2CCCN(C(=O)CCC3CCCC3)CC2)cc1 [4-(3-Cyclopentyl-propionyl)-[1,4]diazepane-1-carboxylic acid (4-cyano-phenyl)-amide]
agonistic activity: agonistic activity

CN(C)c1ccc(NC(=O)N2CCCN(C(=O)CCC3CCCC3)CC2)cc1 [4-(3-Cyclopentyl-propionyl)-[1,4]diazepane-1-carboxylic acid (4-dimethylamino-phenyl)-amide]
agonistic activity: agonistic activity

CCc1ccc(NC(=O)N2CCCN(C(=O)CCC3CCCC3)CC2)cc1 [4-(3-Cyclopentyl-propionyl)-[1,4]diazepane-1-carboxylic acid (4-ethyl-phenyl)-amide]
agonistic activity: agonistic activity

CS(=O)(=O)c1ccc(NC(=O)N2CCCN(C(=O)CCC3CCCC3)CC2)cc1 [4-(3-Cyclopentyl-propionyl)-[1,4]diazepane-1-carboxylic acid (4-methanesulfonyl-phenyl)-amide]
agonistic activity: agonistic activity

CSc1ccc(NC(=O)N2CCCN(C(=O)CCC3CCCC3)CC2)cc1 [4-(3-Cyclopentyl-propionyl)-[1,4]diazepane-1-carboxylic acid (4-methylsulfanyl-phenyl)-amide]
agonistic activity: agonistic activity

CCCCCc1ccc(NC(=O)N2CCCN(C(=O)CCC3CCCC3)CC2)cc1 [4-(3-Cyclopentyl-propionyl)-[1,4]diazepane-1-carboxylic acid (4-pentyl-phenyl)-amide]
agonistic activity: agonistic activity

CCCc1ccc(NC(=O)N2CCCN(C(=O)CCC3CCCC3)CC2)cc1 [4-(3-Cyclopentyl-propionyl)-[1,4]diazepane-1-carboxylic acid (4-propyl-phenyl)-amide]
agonistic activity: agonistic activity

O=C(CCC1CCCC1)N1CCCN(C(=O)Nc2ccc(C(F)(F)F)cc2)CC1 [4-(3-Cyclopentyl-propionyl)-[1,4]diazepane-1-carboxylic acid (4-trifluoromethyl-phenyl)-amide]
agonistic activity: agonistic activity

O=C(CCC1CCCC1)N1CCCN(C(=O)NC2CCCCC2)CC1 [4-(3-Cyclopentyl-propionyl)-[1,4]diazepane-1-carboxylic acid cyclohexylamide]
agonistic activity: agonistic activity

O=C(CCC1CCCC1)N1CCCN(C(=O)NCC2CCCCC2)CC1 [4-(3-Cyclopentyl-propionyl)-[1,4]diazepane-1-carboxylic acid cyclohexylmethyl-amide]
agonistic activity: agonistic activity

Cc1cccc(NC(=O)N2CCCN(C(=O)CCC3CCCC3)CC2)c1 [4-(3-Cyclopentyl-propionyl)-[1,4]diazepane-1-carboxylic acid m-tolylamide]
agonistic activity: agonistic activity

O=C(CCC1CCCC1)N1CCCN(C(=O)Nc2cccc3ccccc23)CC1 [4-(3-Cyclopentyl-propionyl)-[1,4]diazepane-1-carboxylic acid naphthalen-1-ylamide]
agonistic activity: agonistic activity

O=C(CCC1CCCC1)N1CCCN(C(=O)Nc2ccc3ccccc3c2)CC1 [4-(3-Cyclopentyl-propionyl)-[1,4]diazepane-1-carboxylic acid naphthalen-2-ylamide]
agonistic activity: agonistic activity

CCCCc1ccc(NC(=O)N2CCCN(C(=O)CCC3CC3)CC2)cc1 [4-(3-Cyclopropyl-propionyl)-[1,4]diazepane-1-carboxylic acid (4-butyl-phenyl)-amide]
agonistic activity: agonistic activity

CC(C)c1ccc(NC(=O)N2CCCN(C(=O)CCC3CC3)CC2)cc1 [4-(3-Cyclopropyl-propionyl)-[1,4]diazepane-1-carboxylic acid (4-isopropyl-phenyl)-amide]
agonistic activity: agonistic activity

CC(C)(C)c1ccc(NC(=O)N2CCCN(C(=O)CCC3CC3)CC2)cc1 [4-(3-Cyclopropyl-propionyl)-[1,4]diazepane-1-carboxylic acid (4-tert-butyl-phenyl)-amide]
agonistic activity: agonistic activity

O=C(CCC1CC1)N1CCCN(C(=O)Nc2ccc3ccccc3c2)CC1 [4-(3-Cyclopropyl-propionyl)-[1,4]diazepane-1-carboxylic acid naphthalen-2-ylamide]
agonistic activity: agonistic activity

CC(C)CC(=O)N1CCCN(C(=O)Nc2cc(C(C)(C)C)on2)CC1 [4-(3-Methyl-butyryl)-[1,4]diazepane-1-carboxylic acid (5-tert-butyl-isoxazol-3-yl)-amide]
agonistic activity: agonistic activity

CC(C)c1ccc(NC(=O)N2CCCN(C(=O)CCC(F)(F)F)CC2)cc1 [4-(4,4,4-Trifluoro-butyryl)-[1,4]diazepane-1-carboxylic acid (4-isopropyl-phenyl)-amide]
agonistic activity: agonistic activity

CC(C)(C)c1ccc(NC(=O)N2CCCN(C(=O)CCC(F)(F)F)CC2)cc1 [4-(4,4,4-Trifluoro-butyryl)-[1,4]diazepane-1-carboxylic acid (4-tert-butyl-phenyl)-amide]
agonistic activity: agonistic activity

O=C(CCC(F)(F)F)N1CCCN(C(=O)Nc2ccc3ccccc3c2)CC1 [4-(4,4,4-Trifluoro-butyryl)-[1,4]diazepane-1-carboxylic acid naphthalen-2-ylamide]
agonistic activity: agonistic activity

CC(C)(C)c1cc(NC(=O)N2CCCN(C(=O)C3CCC(F)(F)CC3)CC2)on1 [4-(4,4-Difluoro-cyclohexanecarbonyl)-[1,4]diazepane-1-carboxylic acid (3-tert-butyl-isoxazol-5-yl)-amide]
agonistic activity: agonistic activity

O=C(Nc1ccc(C(F)(F)F)cc1)N1CCCN(C(=O)C2CCC(F)(F)CC2)CC1 [4-(4,4-Difluoro-cyclohexanecarbonyl)-[1,4]diazepane-1-carboxylic acid (4-trifluoromethyl-phenyl)-amide]
agonistic activity: agonistic activity

Cc1nc(NC(=O)N2CCCN(C(=O)C3CCC(F)(F)CC3)CC2)sc1C(C)(C)C [4-(4,4-Difluoro-cyclohexanecarbonyl)-[1,4]diazepane-1-carboxylic acid (5-tert-butyl-4-methyl-thiazol-2-yl)-amide]
agonistic activity: agonistic activity

CC(C)(C)c1cc(NC(=O)N2CCCN(C(=O)C3CCC(F)(F)CC3)CC2)no1 [4-(4,4-Difluoro-cyclohexanecarbonyl)-[1,4]diazepane-1-carboxylic acid (5-tert-butyl-isoxazol-3-yl)-amide]
agonistic activity: agonistic activity

CC(C)(C)c1cc(NC(=O)N2CCCN(C(=O)N3CCC(F)(F)CC3)CC2)no1 [4-(4,4-Difluoro-piperidine-1-carbonyl)-[1,4]diazepane-1-carboxylic acid (5-tert-butyl-isoxazol-3-yl)-amide]
agonistic activity: agonistic activity

CC(=O)N1CCN(C(=O)N2CCCN(C(=O)Nc3cc(C(C)(C)C)on3)CC2)CC1 [4-(4-Acetyl-piperazine-1-carbonyl)-[1,4]diazepane-1-carboxylic acid (5-tert-butyl-isoxazol-3-yl)-amide]
agonistic activity: agonistic activity

CC(=O)NC1CCC(C(=O)N2CCCN(C(=O)Nc3cc(C(C)(C)C)on3)CC2)CC1 (stereo not drawn) [4-(4-Acetylamino-cyclohexanecarbonyl)-[1,4]diazepane-1-carboxylic acid (5-tert-butyl-isoxazol-3-yl)-amide]
agonistic activity: agonistic activity

CC(C)(C)c1cc(NC(=O)N2CCCN(C(=O)C3CCC(N)CC3)CC2)no1 (stereo not drawn) [4-(4-Amino-cyclohexanecarbonyl)-[1,4]diazepane-1-carboxylic acid (5-tert-butyl-isoxazol-3-yl)-amide]
agonistic activity: agonistic activity

O=C(Nc1ccc(Cl)c(Cl)c1)N1CCCN(C(=O)c2ccc(Cl)cc2)CC1 [4-(4-Chloro-benzoyl)-[1,4]diazepane-1-carboxylic acid (3,4-dichloro-phenyl)-amide]
agonistic activity: agonistic activity

O=C(Nc1cc(Cl)cc(Cl)c1)N1CCCN(C(=O)c2ccc(Cl)cc2)CC1 [4-(4-Chloro-benzoyl)-[1,4]diazepane-1-carboxylic acid (3,5-dichloro-phenyl)-amide]
agonistic activity: agonistic activity

O=C(Nc1nc2c(s1)CCCC2)N1CCCN(C(=O)c2ccc(Cl)cc2)CC1 [4-(4-Chloro-benzoyl)-[1,4]diazepane-1-carboxylic acid (4,5,6,7-tetrahydro-benzothiazol-2-yl)-amide]
agonistic activity: agonistic activity

O=C(Nc1nc(C2CC2)cs1)N1CCCN(C(=O)c2ccc(Cl)cc2)CC1 [4-(4-Chloro-benzoyl)-[1,4]diazepane-1-carboxylic acid (4-cyclopropyl-thiazol-2-yl)-amide]
agonistic activity: agonistic activity

CC(C)c1ccc(NC(=O)N2CCCN(C(=O)c3ccc(Cl)cc3)CC2)cc1 [4-(4-Chloro-benzoyl)-[1,4]diazepane-1-carboxylic acid (4-isopropyl-phenyl)-amide]
agonistic activity: agonistic activity

O=C(Nc1nc(-c2ccccc2)cs1)N1CCCN(C(=O)c2ccc(Cl)cc2)CC1 [4-(4-Chloro-benzoyl)-[1,4]diazepane-1-carboxylic acid (4-phenyl-thiazol-2-yl)-amide]
agonistic activity: agonistic activity

O=C(Nc1ccc(C(F)(F)F)cc1)N1CCCN(C(=O)c2ccc(Cl)cc2)CC1 [4-(4-Chloro-benzoyl)-[1,4]diazepane-1-carboxylic acid (4-trifluoromethyl-phenyl)-amide]
agonistic activity: agonistic activity

CC(C)(C)c1cc(NC(=O)N2CCCN(C(=O)c3ccc(Cl)cc3)CC2)no1 [4-(4-Chloro-benzoyl)-[1,4]diazepane-1-carboxylic acid (5-tert-butyl-isoxazol-3-yl)-amide]
agonistic activity: agonistic activity
